Laboratory results from patent publication US11530222B2, “Substituted pyrrolopyrimidine and pyrazolopyrimidine as Bruton's tyrosine kinase (BTK) degraders” (ACCUTAR BIOTECHNOLOGY INC., priority 2021, dated 2022).

Legend:
Type in all cases: cell-based
[1] = target: T1, BTK (Homo sapiens, UniProt Q06187); assay: BTK degradative activity in a RAMOS cell line (Western blot); details: 6 hours after administration, read-out: RAMOS BTK Degradation DC50
T1 construct: BTK Degradative Activity of Exemplary Compounds of the Present Disclosure in a RAMOS Cell Line; host or cells: RAMOS
T1 sequence (Q06187 whole entry): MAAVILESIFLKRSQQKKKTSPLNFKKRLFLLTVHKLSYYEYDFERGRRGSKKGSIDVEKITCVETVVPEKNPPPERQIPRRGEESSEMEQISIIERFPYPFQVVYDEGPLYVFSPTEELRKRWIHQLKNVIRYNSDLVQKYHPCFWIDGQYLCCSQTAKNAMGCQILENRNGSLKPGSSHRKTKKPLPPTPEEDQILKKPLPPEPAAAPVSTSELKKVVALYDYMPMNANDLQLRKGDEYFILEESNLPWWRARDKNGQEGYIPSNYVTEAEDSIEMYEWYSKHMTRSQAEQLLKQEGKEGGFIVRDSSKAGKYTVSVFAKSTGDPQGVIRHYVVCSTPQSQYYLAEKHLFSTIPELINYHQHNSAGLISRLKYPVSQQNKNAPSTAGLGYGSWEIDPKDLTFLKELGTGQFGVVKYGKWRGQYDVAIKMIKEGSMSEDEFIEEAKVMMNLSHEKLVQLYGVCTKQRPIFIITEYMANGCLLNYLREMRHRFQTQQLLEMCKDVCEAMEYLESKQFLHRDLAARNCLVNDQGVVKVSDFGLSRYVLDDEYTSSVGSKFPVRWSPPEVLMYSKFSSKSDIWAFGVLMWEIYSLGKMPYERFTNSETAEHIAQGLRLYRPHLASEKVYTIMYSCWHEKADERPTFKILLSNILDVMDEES
Outline: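 Ramos cells in RPMI with 10% FBS were treated with compound in DMSO at various concentrations for 6 h at 37 °C. BTK was measured by Western blot against GAPDH with infrared fluorescent detection and band quantification. DC50 is the concentration at which 50% of BTK is degraded.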

[2] = test system: REC-1 cells; assay: Growth inhibitory activity in BTK-dependent REC-1 cell line (CellTiter-Glo); details: Homo sapiens, Rec1, 144 h, 6 days after administration, read-out: REC1 Cellular Grwoth Inhibition IC50
Protocol: (§1) REC-1 (ATCC) and REC-1 BTK^C481S cells were plated in 96-well plates at 8,000 cells/well in 90 ul of RPMI growth medium containing 10% heat-inactivated FBS and 1× Penicillin Streptomycin, and then incubated at 37° C. overnight. The following day, the test compound was administered to the cells by using 10× compound stock solution prepared in growth medium at various concentrations. After administration of the compound, cells were then incubated at 37° C. for 6 days. Before CellTiter-Glo assay, the plates were equilibrated at room temperature for approximately 10 minutes. 100 ul of CellTiter-Glo® Reagent (Promega) was added to each well. The plates were then incubated at room temperature for 10 minutes and luminescence was recorded by EnSpire plate reader (PerkinElmer).
(§2) The GI50 values (i.e., the concentration of test compound at which 50% of cell growth are inhibited) were calculated. A designation of “A” corresponds to a […] value less than 20 nM. A designation of “B” corresponds to a […] value greater than or equal to 20 nM and less than 200 nM. A designation of “C” corresponds to a […] value greater than or equal to 200 nM.

[3] = test system: REC-1 BTK^C481S cells; assay: Growth inhibitory activity in REC-1 BTK^C481S cell line (CellTiter-Glo); details: Homo sapiens, Rec1, 144 h, 6 days after administration, read-out: REC1 BTK^C481S Cellular Grwoth Inhibition IC50
Protocol: The BTK gene in REC-1 cell line (ATCC) was edited by the CRISPR-Cas9 technology to create a C to S point mutation at residue 481 of BTK protein. For gene editing, first, gRNA complex was prepared with Alt-R CRISPR-Cas9 tracrRNA and crRNA BTK^C481S (5′-[…]-3′) (IDT-Integrated DNA Technologies), and then BTK^C481S ribonucleoprotein (RNP) complex was prepared with gRNA complex and Alt-R S.p. Cas9 Nuclease V3 (IDT-Integrated DNA Technologies). Next, 1×10^5 REC-1 cells were electroporated with BTK^C481S RNP complex, Alt-R Cas9 Electroporation Enhancer and BTKC481S Ultramer DNA Oligo (5′-[…] […]-3′) (IDT-Integrated DNA Technologies) using Neon Transfection System (Thermo Fisher) under the condition of 1400 V, 10 ms, 3 pulses. Cells were then plated in a 96-well plate for 10 days and selected with 10 nM Ibrutinib for 5 passages. C481S mutation of BTK was further validated by Sanger Sequencing using gDNA extracted from these cells.
as §1, §2

| SMILES | DC50 [1] [nM] | IC50 [2] [nM] | IC50 [3] [nM] |
| --- | --- | --- | --- |
| COc1ccc(F)cc1C(=O)NCc1ccc(-c2nn(-c3ccc(N4CC[C@@H](CN5CCN(c6ccc7c(c6)CN([C@H]6CCC(=O)NC6=O)C7=O)CC5)C4)c(F)c3)c3ncnc(N)c23)cc1 [Compound 96, N-(4-(4-amino-1-(4-((S)-3-((4-(2-((S)-2,6-dioxopiperidin-3-yl)-1-oxoisoindolin-5-yl)piperazin-1-yl)methyl)pyrrolidin-1-yl)-3-fluorophenyl)-1H-pyrazolo[3,4-d]pyrimidin-3-yl)benzyl)-5-fluoro-2-methoxybenzamide] | < 10 | < 20 | < 20 |
| COc1ccc(F)cc1C(=O)NCc1ccc(-c2nn(-c3ccc(N4CC(CN5CCN(c6ccc7c(c6)CN([C@H]6CCC(=O)NC6=O)C7=O)CC5)C4)nc3)c3ncnc(N)c23)cc1 [Compound 97, (S)—N-(4-(4-amino-1-(6-(3-((4-(2-(2,6-dioxopiperidin-3-yl)-1-oxoisoindolin-5-yl)piperazin-1-yl)methyl)azetidin-1-yl)pyridin-3-yl)-1H-pyrazolo[3,4-d]pyrimidin-3-yl)benzyl)-5-fluoro-2-methoxybenzamide] | < 10 | < 20 | < 20 |
